Paper PMC9763021, “Comprehensive Assessment of Biomolecular Interactions of Morpholine-Based Mixed Ligand Cu(II) and Zn(II) Complexes of 2,2′-Bipyridine as Potential Anticancer and SARS-CoV-2 Agents: A Synergistic Experimental and Structure-Based Virtual Screening” (Bioinorganic Chemistry and Applications, 2022)

Key:
[1] = system: MCF-7 breast cancer cell line; experiment: MTT cell viability assay, MCF-7; assay type: cell-based, human; settings: 72 hours exposure
Description: (§1) All substances towards the A549, HepG2, MCF-7, and NHDF cell lines were evaluated by using the MTT approach. The collected data were utilized to compute the IC50 value and contrast it with the gold standard cisplatin anticancer medication.
(§2) Cellular viability or metabolic properties can be measured using the MTT assay, which is a powerful and credible method for anticancer properties. The anticancer efficacy of all test compounds was investigated by the MTT assay against A549, HepG2, MCF-7, and NHDF cell lines. As per the colorimetric approach, the IC50 findings of all test substances were evaluated as the % of cell viability/growth inhibition. […] Nevertheless, complex (1a) has the highest cytotoxic potential among others. The acquired findings were in the subsequent sequence as follows: (cisplatin) > (1a) > (2a) > (HL) (Figure 16 and Table 10). The cytotoxic effectiveness is dependent upon the DNA-binding modalities, the structure-activity relationship, as well as drug concentrations and incubation period exposure. […] As per Tweedy's chelation theory, charge equilibration happens as a result of coordination between the ligands and metal ions, which minimises the polarity of the metal ions and causes the capability of the test complexes to pass via the cell membrane lipid layer. Thus, it put off the synthesis of cell wall/protein/nucleic acids. Additionally, the results of DNA-binding tests using these complexes, including gel electrophoresis, UV-visible spectral titration, hydrodynamic, emission, and CV findings, were in good agreement with the findings of cytotoxicity. The expressions (46) and (47) were supported to measure the % of growth inhibition and cell viability. […]
(§3) A549, HepG2 MCF-7, and NHDF are represented as human lung cancer cell line, liver cancer cell line, breast cancer cell line, and normal human dermal fibroblasts cell line.(45) % Cytotoxiciy=1− Mean absorbance of Sample at 595 nm/Mean absorbance of Controlat 595 nm ×100, (46) Cellviability%=100−Cytotoxiciy%.

[2] = system: HepG2 liver cancer cell line; experiment: MTT cell viability assay, HepG2; assay type: cell-based, human; settings: 72 hours exposure
Description: as §1, §2, §3

[3] = system: A549 human lung cancer cell line; experiment: MTT cell viability assay, A549; assay type: cell-based; settings: 72 hours exposure
Description: as §1, §2, §3

[4] = system: NHDF normal human dermal fibroblasts cell line; experiment: MTT cell viability assay, NHDF; assay type: cell-based; settings: 72 hours exposure, normal cells
Description: as §1, §2, §3

[5] = system: Shigella flexneri; experiment: Agar disc diffusion, strain E; assay type: cell-based; set-up: (inhibition %): concentration or dose not given beside the values
Description: (§4) In-vitro antimicrobial properties were evaluated for all samples by the agar disc diffusion method towards different fungal and bacterial strains. Additionally, the reported inhibition zone values were comparatively analyzed with the standard antifungal drugs ketoconazole and amphotericin B as well as the standard antibiotic medications streptomycin and amikacin.
(§5) The current research has a curious focus on the in vitro antimicrobial properties of biological systems because these studies are crucial for developing effective antibacterial and antifungal medications. […] It can also be spelled out based on the chelation theory proposed by Overtone and Tweedy. Chelation theory points out that the partial exchanging of the positive charge of the metal center with donor moieties, and overlap of the ligand orbitals will reduce the greater degree of the metal ion's polarity, which ultimately rises the delocalization of π and d electrons over the full chelated ring system. By raising the size of the metal ion due to the retarding of polarization, chelation may also enhance the complexes' lipophilic characteristics, which further stimulate the lipid membrane permeability and break down the bacteria' enzymes responsible for cell wall formation, therefore slowing down the regular cell processes. By preventing the production of cell walls/proteins/DNA, including by obstructing folate metabolism and the cytoplasmic membrane, antimicrobial drugs frequently either fully eliminate microbes or only prevent their cell growth. Additionally, the samples' mode of action may be employed in disrupting the cell's respiration process by forming an H-bond during the morpholine-fused iminic group coordinated with the active metal center of its components, inhibiting proliferation of the cell. […] The difference in the antimicrobial efficacy of some of the compounds towards various microorganisms influences on the impermeability of the cells of the germs or the diversity of ribosomes of the microbes. The % of the inhibition of all substances is estimated from (45) (Table 9).
(§6) (A, B, C, D, and E are represented as gram negative bacteria species Escherichia coli, Salmonella enteric serovar typhi, Salmonella enteric serovar typhi, Pseudomonas aeruginosa, and Shigella flexneri, respectively. F & G are denoted as gram positive bacteria species Staphylococcus aureus and Bacillus cereus. H, I, and J are represented as fungal strains Aspergillus niger, Candida albicans, and Mucor indicus. Standard drugs for bacterial strains: Amikacin & Streptomycin Standard drugs for fungal strains: Ketoconazole and Amphotericin B. [Control (DMSO) = 6 mm].(44) Inhibition %=T–C/T×100, where T and C are represented as the diameter of microbial growth of the sample plates and the control plate (6 mm), respectively. Error limits ±2.5–5.0% (P ≤ 0.05).

[6] = system: Pseudomonas aeruginosa; experiment: Agar disc diffusion, strain D; assay type: cell-based; set-up: (inhibition %): concentration or dose not given beside the values
Description: as §4, §5, §6

[7] = system: Salmonella enteric serovar typhi; experiment: Agar disc diffusion, strain C; assay type: cell-based
Description: as §4, §5, §6

[8] = system: Staphylococcus aureus; experiment: Agar disc diffusion, strain F; assay type: cell-based; set-up: (inhibition %): concentration or dose not given beside the values
Description: as §4, §5, §6

[9] = system: Salmonella enteric serovar typhi; experiment: Agar disc diffusion, strain B; assay type: cell-based
Description: as §4, §5, §6

[10] = system: Bacillus cereus; experiment: Agar disc diffusion, strain G; assay type: cell-based; set-up: (inhibition %): concentration or dose not given beside the values
Description: as §4, §5, §6

[11] = system: Escherichia coli; experiment: Agar disc diffusion, strain A; assay type: cell-based; set-up: (inhibition %): concentration or dose not given beside the values
Description: as §4, §5, §6

Compound	IC50 [1] [µM]	IC50 [2] [µM]	IC50 [3] [µM]	IC50 [4] [µM]	(inhibition %) [5] [%]	diameter of the clear zone inhibition ([5]; control = 6 mm) [mm]	(inhibition %) [6] [%]	diameter of the clear zone inhibition ([6]; control = 6 mm) [mm]	(inhibition %) [7] [%]	diameter of the clear zone inhibition ([7]; control = 6 mm) [mm]	(inhibition %) [8] [%]	diameter of the clear zone inhibition ([8]; control = 6 mm) [mm]	(inhibition %) [9] [%]	diameter of the clear zone inhibition ([9]; control = 6 mm) [mm]	(inhibition %) [10] [%]	diameter of the clear zone inhibition ([10]; control = 6 mm) [mm]	(inhibition %) ([11]; (T–C)/T×100) [%]	diameter of the clear zone inhibition ([11]; control (DMSO) = 6 mm) [mm]
N.N.[Cl][Pt][Cl] [Cisplatin, reference compound]	20.2 ± 1	22.9 ± 1.1	31.9 ± 1.6	26.9 ± 1.3	–	–	–	–	–	–	–	–	–	–	–	–	–	–
NCC[C@H](O)C(=O)N[C@@H]1C[C@H](N)[C@@H](O[C@H]2O[C@H](CN)[C@@H](O)[C@H](O)[C@H]2O)[C@H](O)[C@H]1O[C@H]1O[C@H](CO)[C@@H](O)[C@H](N)[C@H]1O [Amikacin, reference compound]	–	–	–	–	70	20	70	20	75	24	70	20	73	22	70	20	73	22
